Test results: ChEMBL document CHEMBL1909046, “DrugMatrix in vitro pharmacology data”

How the values were obtained:
[1] = molecular target: cGMP-specific 3',5'-cyclic phosphodiesterase (Homo sapiens, UniProt O76074); experiment: DRUGMATRIX: Phosphodiesterase PDE5 enzyme inhibition (substrate: [3H]cGMP + cGMP); assay type: tissue-based, Platelet; settings: platelet; Not Active = under 50% inhibition at 10 µM
[2] = molecular target: T1, Cytochrome P450 1A2 (Homo sapiens, UniProt P05177); settings: bti-tn-5b1-4; also: in other assays of this panel Not Active means under 50% inhibition at 10 µM
T1 sequence (P05177 whole entry): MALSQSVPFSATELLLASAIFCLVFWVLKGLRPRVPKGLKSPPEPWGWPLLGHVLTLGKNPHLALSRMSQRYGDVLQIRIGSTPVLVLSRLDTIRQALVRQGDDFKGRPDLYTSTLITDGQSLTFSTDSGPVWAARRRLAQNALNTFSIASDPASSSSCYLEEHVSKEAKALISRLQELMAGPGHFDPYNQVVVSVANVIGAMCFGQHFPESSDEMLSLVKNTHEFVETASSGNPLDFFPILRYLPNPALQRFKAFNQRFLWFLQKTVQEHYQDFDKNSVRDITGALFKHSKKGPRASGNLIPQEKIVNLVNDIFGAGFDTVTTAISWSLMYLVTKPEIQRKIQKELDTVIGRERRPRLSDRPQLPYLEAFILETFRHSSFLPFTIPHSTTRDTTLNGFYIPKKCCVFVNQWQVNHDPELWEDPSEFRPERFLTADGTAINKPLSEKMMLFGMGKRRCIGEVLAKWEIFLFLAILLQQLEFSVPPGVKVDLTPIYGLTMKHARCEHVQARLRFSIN

[3] = molecular target: Carbonic anhydrase 2 (Homo sapiens, UniProt P00918); experiment: DRUGMATRIX: Carbonic Anhydrase II enzyme inhibition (substrate: 4-Nitrophenyl acetate (4-NPA)); assay type: tissue-based, Erythrocyte; settings: erythrocyte; Not Active = under 50% inhibition at 10 µM
[4] = molecular target: T2, Thromboxane-A synthase (Homo sapiens, UniProt P24557); experiment: biochemical; assay type: tissue-based, Platelet; settings: platelet;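 also: enzyme inhibition assay with PGH2 supplied as substrate; in other assays of this panel Not Active means under 50% inhibition at 10 µM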
T2 sequence (P24557 whole entry): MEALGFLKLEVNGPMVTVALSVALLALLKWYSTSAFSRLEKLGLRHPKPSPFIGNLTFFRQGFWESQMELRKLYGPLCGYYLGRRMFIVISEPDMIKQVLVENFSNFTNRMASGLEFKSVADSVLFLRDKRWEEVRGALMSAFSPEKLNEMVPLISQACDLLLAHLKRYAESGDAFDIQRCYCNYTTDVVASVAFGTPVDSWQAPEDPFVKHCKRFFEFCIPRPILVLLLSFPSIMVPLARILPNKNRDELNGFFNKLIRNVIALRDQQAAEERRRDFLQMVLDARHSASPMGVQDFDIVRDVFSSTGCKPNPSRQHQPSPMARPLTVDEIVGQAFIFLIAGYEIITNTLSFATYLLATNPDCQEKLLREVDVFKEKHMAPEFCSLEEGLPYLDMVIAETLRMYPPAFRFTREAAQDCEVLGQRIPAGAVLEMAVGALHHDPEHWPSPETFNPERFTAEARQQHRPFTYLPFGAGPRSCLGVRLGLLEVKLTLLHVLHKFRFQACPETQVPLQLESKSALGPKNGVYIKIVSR

[5] = molecular target: T3, Progesterone receptor (Bos taurus, UniProt Q690N0); experiment: DRUGMATRIX: Progesterone radioligand binding (ligand: [3H] R-5020); assay type: tissue-based, Uterus; settings: Not Active = under 50% inhibition at 10 µM
T3 sequence (Q690N0 whole entry): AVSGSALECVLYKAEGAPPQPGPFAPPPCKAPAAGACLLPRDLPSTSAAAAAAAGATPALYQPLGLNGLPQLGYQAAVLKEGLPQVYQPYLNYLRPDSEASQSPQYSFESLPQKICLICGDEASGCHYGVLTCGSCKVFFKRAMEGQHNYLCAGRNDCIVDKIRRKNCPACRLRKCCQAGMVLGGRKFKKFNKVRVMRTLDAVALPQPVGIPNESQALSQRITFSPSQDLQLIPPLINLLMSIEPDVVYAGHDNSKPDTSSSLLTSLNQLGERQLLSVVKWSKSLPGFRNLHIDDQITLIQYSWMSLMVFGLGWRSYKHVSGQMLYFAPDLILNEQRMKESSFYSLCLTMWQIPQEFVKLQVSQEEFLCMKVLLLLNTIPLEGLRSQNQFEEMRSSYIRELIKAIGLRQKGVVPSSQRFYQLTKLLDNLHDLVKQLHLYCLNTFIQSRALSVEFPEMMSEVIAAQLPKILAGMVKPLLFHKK

[6] = molecular target: T4, C-X-C chemokine receptor type 2 (Homo sapiens, UniProt P25025); assay type: cell membranes, Membrane; settings: cho-k1; also: in other assays of this panel Not Active means under 50% inhibition at 10 µM
T4 sequence (P25025 whole entry): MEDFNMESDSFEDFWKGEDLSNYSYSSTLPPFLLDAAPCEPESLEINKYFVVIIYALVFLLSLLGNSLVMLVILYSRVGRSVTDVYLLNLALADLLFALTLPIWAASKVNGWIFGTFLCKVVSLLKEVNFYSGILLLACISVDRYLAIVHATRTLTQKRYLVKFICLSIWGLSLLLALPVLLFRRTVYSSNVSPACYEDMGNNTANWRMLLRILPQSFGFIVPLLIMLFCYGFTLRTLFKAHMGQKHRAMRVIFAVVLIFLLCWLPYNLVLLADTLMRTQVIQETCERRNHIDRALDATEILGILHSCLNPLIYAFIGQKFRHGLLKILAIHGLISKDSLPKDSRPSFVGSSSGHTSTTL

[7] = molecular target: Melanocortin receptor 3 (Homo sapiens, UniProt P41968); assay type: cell membranes, Membrane; settings: hek293; also: in other assays of this panel Not Active means under 50% inhibition at 10 µM
Sequence of Melanocortin receptor 3 (P41968 whole entry): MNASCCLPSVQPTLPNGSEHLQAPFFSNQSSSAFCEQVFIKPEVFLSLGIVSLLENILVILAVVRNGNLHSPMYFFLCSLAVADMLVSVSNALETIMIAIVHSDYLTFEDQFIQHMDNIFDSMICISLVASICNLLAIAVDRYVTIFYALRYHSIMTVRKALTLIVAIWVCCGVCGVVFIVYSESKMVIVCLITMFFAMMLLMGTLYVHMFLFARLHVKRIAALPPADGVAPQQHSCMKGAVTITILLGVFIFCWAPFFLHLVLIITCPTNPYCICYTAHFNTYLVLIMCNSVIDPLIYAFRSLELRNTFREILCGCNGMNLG

CN(C)CCC=C1c2ccccc2CCc2ccccc21 [AMITRIPTYLINE]
Not Active: IC50 [1] | IC50 [2] | Ki [2] | IC50 [3] | IC50 [4] | IC50 [5] | IC50 [6] | IC50 [7]

CC(=O)Oc1ccccc1C(=O)O [ASPIRIN]
Not Active: IC50 [1] | IC50 [2] | Ki [2] | IC50 [3] | IC50 [4] | IC50 [5] | IC50 [6] | IC50 [7]

CC(=O)OC[C@H]1O[C@@H](n2ncc(=O)[nH]c2=O)[C@H](OC(C)=O)[C@@H]1OC(C)=O [AZARIBINE]
Not Active: IC50 [1] | IC50 [2] | Ki [2] | IC50 [3] | IC50 [4] | IC50 [5] | IC50 [6] | IC50 [7]

C[C@H]1[C@H](NC(=O)/C(=N\OC(C)(C)C(=O)O)c2csc(N)n2)C(=O)N1S(=O)(=O)O [AZTREONAM]
Not Active: IC50 [1] | IC50 [2] | Ki [2] | IC50 [3] | IC50 [4] | IC50 [5] | IC50 [6] | IC50 [7]

O=C(O)CCNC(=O)c1ccc(/N=N/c2ccc(O)c(C(=O)O)c2)cc1 [BALSALAZIDE]
Not Active: IC50 [1] | IC50 [2] | Ki [2] | IC50 [3] | IC50 [4] | IC50 [5] | IC50 [6] | IC50 [7]

COc1cc(OC)c(C(=O)CCCN2CCCC2)c(OC)c1 [BUFLOMEDIL]
Not Active: IC50 [1] | IC50 [2] | Ki [2] | IC50 [3] | IC50 [4] | IC50 [5] | IC50 [6] | IC50 [7]

Cn1c(=O)c2c(ncn2C)n(C)c1=O [CAFFEINE]
Not Active: IC50 [1] | IC50 [2] | Ki [2] | IC50 [3] | IC50 [4] | IC50 [5] | IC50 [6] | IC50 [7]

ClC(Cl)(Cl)Cl [CARBON TETRACHLORIDE]
Not Active: IC50 [1] | IC50 [2] | Ki [2] | IC50 [3] | IC50 [4] | IC50 [5] | IC50 [6] | IC50 [7]

CO/N=C(\C(=O)N[C@@H]1C(=O)N2C(C(=O)O)=C(COC(C)=O)CS[C@H]12)c1csc(N)n1 [CEFOTAXIME]
Not Active: IC50 [1] | IC50 [2] | Ki [2] | IC50 [3] | IC50 [4] | IC50 [5] | IC50 [6] | IC50 [7]

CNC1=Nc2ccc(Cl)cc2C(c2ccccc2)=[N+]([O-])C1 [CHLORDIAZEPOXIDE]
Not Active: IC50 [1] | IC50 [2] | Ki [2] | IC50 [3] | IC50 [4] | IC50 [5] | IC50 [6] | IC50 [7]

Cc1cc(O)cc(C)c1Cl [CHLOROXYLENOL]
Not Active: IC50 [1] | IC50 [2] | Ki [2] | IC50 [3] | IC50 [4] | IC50 [5] | IC50 [6] | IC50 [7]
